Measurements taken from patent publication US9637488B2, “Heterocyclic compounds as inhibitors of class I PI3KS” (priority 2015, dated 2017).

How the values were obtained:
Assay type in all cases: biochemical
PI3Kδ (p110δ/p85α) = PI3Kδ (p110δ/p85α) (Homo sapiens (Human), UniProt O00329); assay: cell-free PI3K HTRF assay, PI3Kδ; details: 10-dose IC50 mode, 3-fold serial dilution starting at 1 μM; ATP 10 μM; read-out: IC50 value for the inhibition of PI3Kδ
PI3Kβ (p110β/p85α) = PI3Kβ (p110β/p85α) (Homo sapiens (Human), UniProt P42338); assay: cell-free PI3K HTRF assay, PI3Kβ; details: ratio of IC50 against PI3Kβ related to PI3Kδ; 10-dose, 3-fold serial dilution starting at 10 μM
Chain of PI3Kβ (p110β/p85α) (P42338 whole entry): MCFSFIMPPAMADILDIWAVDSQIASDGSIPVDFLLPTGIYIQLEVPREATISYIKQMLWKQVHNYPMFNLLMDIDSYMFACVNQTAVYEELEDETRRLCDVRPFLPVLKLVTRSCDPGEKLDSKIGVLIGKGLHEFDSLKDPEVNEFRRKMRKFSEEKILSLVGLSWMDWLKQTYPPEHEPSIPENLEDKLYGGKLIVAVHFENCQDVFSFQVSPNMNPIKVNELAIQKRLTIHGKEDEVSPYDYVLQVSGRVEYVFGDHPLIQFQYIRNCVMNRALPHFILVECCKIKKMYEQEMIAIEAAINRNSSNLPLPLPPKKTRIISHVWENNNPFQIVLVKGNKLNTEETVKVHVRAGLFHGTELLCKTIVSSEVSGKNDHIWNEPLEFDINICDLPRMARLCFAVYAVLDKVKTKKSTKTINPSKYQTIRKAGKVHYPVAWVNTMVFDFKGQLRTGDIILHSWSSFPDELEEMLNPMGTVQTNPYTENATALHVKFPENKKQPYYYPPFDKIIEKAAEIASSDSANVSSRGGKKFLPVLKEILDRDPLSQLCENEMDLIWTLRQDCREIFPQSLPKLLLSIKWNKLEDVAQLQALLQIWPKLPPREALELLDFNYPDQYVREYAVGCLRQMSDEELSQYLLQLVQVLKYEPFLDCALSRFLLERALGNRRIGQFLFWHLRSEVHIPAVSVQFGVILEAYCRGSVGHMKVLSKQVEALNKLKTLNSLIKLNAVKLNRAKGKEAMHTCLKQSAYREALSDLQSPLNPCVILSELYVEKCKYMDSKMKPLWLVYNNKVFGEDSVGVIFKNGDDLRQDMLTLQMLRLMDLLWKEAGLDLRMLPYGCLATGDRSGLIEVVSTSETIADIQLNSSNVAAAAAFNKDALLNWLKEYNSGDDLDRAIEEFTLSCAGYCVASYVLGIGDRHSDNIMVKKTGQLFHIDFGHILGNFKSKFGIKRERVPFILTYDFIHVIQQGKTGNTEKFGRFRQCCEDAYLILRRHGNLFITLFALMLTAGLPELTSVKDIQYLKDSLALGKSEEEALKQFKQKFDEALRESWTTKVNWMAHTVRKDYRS
Chain of PI3Kβ (p110β/p85α) (P27986 whole entry partner): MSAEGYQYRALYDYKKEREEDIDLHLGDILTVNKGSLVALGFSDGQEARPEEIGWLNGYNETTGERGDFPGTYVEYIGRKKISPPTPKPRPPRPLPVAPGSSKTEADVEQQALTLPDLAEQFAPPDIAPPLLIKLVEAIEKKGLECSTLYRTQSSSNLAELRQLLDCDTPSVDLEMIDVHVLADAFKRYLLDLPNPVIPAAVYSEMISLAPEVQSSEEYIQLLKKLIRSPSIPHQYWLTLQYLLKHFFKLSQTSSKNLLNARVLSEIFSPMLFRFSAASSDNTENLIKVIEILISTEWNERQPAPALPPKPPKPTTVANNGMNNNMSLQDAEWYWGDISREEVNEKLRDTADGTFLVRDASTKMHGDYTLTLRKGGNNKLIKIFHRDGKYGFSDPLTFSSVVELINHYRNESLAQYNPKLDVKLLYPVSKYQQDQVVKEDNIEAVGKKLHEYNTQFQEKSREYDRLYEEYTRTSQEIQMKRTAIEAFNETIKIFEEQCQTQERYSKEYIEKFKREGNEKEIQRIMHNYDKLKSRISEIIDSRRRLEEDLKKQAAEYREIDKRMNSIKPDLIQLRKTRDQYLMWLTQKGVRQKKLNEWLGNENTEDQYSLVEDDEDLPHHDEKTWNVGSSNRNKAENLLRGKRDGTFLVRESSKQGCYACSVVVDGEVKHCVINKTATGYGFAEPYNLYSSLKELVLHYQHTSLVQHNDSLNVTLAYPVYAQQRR
Protocol: (§1) Exemplary compounds of the invention were tested for inhibitory activity and potency against class I PI3Ks (p110α/p85α, p110β/p85α, p110δ/p85α and p110γ) using a cell-free based PI3K HTRF assay. This assay was used to detect the formation of the product 3,4,5-inositol triphosphate molecule (PIP3) by displacement of biotin-PIP3 from an energy transfer complex consisting of Europium labeled anti-GST monoclonal antibody, a GST-tagged pleckstrin homology (PH) domain, biotinylated PIP3 and Streptavidin-Allophycocyanin (APC). Excitation of Europium in the complex results in an energy transfer to the APC and a fluorescent emission at 665 nm. The PIP3 product formed by human PI 3-Kinase activity displaces biotin-PIP3 from the complex resulting in a loss of energy transfer and thus a decrease in signal.
(§2) Human class I PI3K isoforms were co-expressed in a Baculovirus infected cell expression system. The PI3K isoforms were assayed in the presence of HEPES (50 mM, pH 7.0), NaN3 (0.02%), BSA (0.01%), orthovanadate (0.1 mM), and DMSO (1%). The exemplary compounds dissolved in DMSO were delivered into the kinase reaction mixture by Acoustic technology (Echo550; nanolitter range), and were pre-incubated for 10 min at room temperature before adding ATP (10 μM) to initiate the reaction. After 30 min at 30° C., the reactions were quenched with a stop solution, incubated overnight with a detection mixture before measuring HTRF (Ex: 320 nm; Em: 615/665 nm). The emission ratio is converted into μM PIP3 production based on PIP3 standard curves, and the nonlinear regression to obtain the standard curve and IC50 values are performed using Graphpad Prism software.
(§3) The assays were performed at Reaction Biology Corporation, One Great Valley Parkway, Suite 2, Malvern, Pa. 19355, USA.
(§4) Exemplary compounds of the invention selected were further tested their inhibitory activity or potency against PI3Kα, PI3Kβ, and PI3Kγ in 10-dose IC50 mode with 3-fold serial dilution starting at 10 μM. […] Table 5 below illustrates the selectivity of the exemplary compounds using the ratios of the IC50 values of the compounds against PI3Kα, PI3Kβ, and PI3Kγ related to PI3Kδ. […] Such unexpected selectivity against PI3Kδ and/or PI3Kγ is attributed to the unusual overall shape of the molecules of formula (I) and (II), and the optimal selection of R1, R2, R3, R4, X, and Y defined in formula (I) and (II) in order to bind favorably in the ATP-binding pocket of PI3Kδ and/or PI3Kγ versus other class I isozymes.

PI3Kα (p110α/p85α) = PI3Kα (p110α/p85α) (Homo sapiens (Human), UniProt P42336); assay: cell-free PI3K HTRF assay, PI3Kα; details: ratio of IC50 against PI3Kα related to PI3Kδ; 10-dose, 3-fold serial dilution starting at 10 μM
Chain of PI3Kα (p110α/p85α) (P42336 whole entry): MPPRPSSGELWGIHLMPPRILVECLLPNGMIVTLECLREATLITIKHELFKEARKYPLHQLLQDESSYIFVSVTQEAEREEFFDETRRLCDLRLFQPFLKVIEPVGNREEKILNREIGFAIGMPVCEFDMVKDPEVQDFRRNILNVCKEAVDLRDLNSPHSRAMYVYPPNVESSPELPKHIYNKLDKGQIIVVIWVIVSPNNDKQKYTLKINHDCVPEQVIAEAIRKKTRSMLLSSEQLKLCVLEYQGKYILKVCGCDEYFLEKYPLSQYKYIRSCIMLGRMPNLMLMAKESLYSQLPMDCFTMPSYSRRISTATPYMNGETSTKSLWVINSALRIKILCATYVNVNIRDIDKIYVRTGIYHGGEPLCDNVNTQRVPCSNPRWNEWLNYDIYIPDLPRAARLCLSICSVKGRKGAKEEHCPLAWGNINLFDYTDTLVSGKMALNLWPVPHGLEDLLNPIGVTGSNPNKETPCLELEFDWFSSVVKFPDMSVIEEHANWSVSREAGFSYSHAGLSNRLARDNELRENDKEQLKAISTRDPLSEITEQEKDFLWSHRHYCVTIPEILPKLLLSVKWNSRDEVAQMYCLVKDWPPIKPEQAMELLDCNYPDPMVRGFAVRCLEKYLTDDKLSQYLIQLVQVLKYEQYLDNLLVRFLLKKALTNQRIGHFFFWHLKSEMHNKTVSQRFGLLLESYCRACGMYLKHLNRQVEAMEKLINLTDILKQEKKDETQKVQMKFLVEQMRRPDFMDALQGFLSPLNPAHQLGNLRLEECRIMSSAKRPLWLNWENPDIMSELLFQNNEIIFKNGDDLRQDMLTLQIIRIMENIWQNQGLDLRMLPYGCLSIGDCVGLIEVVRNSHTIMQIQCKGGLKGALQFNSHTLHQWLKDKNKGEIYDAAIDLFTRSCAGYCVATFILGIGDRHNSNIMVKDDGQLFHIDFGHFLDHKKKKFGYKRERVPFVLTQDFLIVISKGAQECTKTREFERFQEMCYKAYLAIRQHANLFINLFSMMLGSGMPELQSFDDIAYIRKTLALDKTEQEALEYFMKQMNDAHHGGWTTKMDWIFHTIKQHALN
Chain of PI3Kα (p110α/p85α) (P27986 whole entry partner): as the sequence (P27986 whole entry partner) above
Protocol: as §1, §2, §3, §4

PI3Kγ (p110γ) = PI3Kγ (p110γ) (Homo sapiens (Human), UniProt P48736); assay: cell-free PI3K HTRF assay, PI3Kγ; details: ratio of IC50 against PI3Kγ related to PI3Kδ; 10-dose, 3-fold serial dilution starting at 10 μM
Chain of PI3Kγ (p110γ) (P48736 whole entry): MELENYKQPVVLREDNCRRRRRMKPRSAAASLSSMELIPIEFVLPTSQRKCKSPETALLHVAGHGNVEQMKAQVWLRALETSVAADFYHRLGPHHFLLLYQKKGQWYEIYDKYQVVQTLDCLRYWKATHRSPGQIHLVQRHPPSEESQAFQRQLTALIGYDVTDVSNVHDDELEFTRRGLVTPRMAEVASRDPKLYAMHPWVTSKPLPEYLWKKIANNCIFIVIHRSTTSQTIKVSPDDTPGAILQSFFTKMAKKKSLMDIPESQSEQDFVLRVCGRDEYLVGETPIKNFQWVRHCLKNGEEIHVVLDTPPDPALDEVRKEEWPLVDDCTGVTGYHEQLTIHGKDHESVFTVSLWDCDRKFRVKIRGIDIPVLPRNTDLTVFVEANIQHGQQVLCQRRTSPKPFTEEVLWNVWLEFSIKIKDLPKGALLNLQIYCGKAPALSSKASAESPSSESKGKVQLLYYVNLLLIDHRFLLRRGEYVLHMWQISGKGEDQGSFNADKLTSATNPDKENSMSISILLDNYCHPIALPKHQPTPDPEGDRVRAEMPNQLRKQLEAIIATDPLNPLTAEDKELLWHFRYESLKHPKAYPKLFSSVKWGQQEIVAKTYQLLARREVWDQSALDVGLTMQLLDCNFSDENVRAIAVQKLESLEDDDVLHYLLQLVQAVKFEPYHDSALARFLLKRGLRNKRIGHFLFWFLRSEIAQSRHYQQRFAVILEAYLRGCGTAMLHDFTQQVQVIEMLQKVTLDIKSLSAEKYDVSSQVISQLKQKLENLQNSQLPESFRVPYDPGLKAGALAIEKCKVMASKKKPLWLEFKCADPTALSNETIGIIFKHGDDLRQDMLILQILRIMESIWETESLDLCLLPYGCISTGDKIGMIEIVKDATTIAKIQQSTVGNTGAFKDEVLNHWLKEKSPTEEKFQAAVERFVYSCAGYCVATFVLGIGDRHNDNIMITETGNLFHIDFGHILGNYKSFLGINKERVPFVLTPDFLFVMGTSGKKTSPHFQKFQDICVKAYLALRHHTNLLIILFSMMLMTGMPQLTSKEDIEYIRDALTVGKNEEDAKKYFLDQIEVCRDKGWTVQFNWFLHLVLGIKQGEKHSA
Protocol: as §1, §2, §3, §4

Chain of PI3Kδ (p110δ/p85α) (O00329 whole entry): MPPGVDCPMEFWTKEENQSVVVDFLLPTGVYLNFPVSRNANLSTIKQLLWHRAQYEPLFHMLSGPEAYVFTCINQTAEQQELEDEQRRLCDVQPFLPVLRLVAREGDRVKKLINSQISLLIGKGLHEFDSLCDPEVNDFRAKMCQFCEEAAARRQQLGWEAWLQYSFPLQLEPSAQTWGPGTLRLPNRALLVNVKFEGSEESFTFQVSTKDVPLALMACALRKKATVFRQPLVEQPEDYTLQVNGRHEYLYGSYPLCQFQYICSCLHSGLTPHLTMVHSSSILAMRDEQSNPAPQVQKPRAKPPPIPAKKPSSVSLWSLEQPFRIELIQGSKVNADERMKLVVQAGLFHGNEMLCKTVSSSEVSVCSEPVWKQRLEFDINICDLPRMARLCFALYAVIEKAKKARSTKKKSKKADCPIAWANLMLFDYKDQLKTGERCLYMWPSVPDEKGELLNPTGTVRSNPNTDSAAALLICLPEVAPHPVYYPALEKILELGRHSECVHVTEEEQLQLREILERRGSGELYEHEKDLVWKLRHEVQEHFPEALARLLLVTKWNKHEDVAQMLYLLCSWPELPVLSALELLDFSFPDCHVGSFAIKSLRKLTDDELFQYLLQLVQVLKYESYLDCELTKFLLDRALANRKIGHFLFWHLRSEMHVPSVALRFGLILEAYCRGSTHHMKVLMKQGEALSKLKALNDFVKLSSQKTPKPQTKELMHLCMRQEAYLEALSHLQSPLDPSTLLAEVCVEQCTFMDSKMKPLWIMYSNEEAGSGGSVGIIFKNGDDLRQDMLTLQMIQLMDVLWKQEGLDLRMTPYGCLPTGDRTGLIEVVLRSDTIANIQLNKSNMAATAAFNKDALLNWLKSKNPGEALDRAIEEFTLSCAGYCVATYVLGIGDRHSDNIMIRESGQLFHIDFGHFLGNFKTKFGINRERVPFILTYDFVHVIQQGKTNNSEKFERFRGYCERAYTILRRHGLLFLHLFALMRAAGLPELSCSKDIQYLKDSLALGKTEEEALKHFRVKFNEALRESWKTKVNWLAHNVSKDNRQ
Chain of PI3Kδ (p110δ/p85α) (P27986 whole entry partner): as the sequence (P27986 whole entry partner) above

Row | SMILES | IC50 (PI3Kδ (p110δ/p85α)) | Ratio (β/δ) (PI3Kβ (p110β/p85α)) | Ratio (α/δ) (PI3Kα (p110α/p85α)) | Ratio (γ/δ) (PI3Kγ (p110γ))
1 | N#Cc1c(N)ncnc1N1CCCC1c1cc2ccc(F)cc2nc1-c1ccncc1 (stereo not shown) [Compound 15] | 62 nM | 11 | 138 | 2.2
2 | Fc1cccc(-c2nc3cc(F)ccc3cc2C2CCCN2c2ncnc3[nH]cnc23)c1 (stereo not shown) [Compound 22] | 0.5 nM | 8946 | 16451 | 139
3 | Cc1cccc2cc([C@@H]3CCCN3c3ncnc(N)c3C#N)c(N3CCOCC3)nc12 [Compound 65] | < 0.05 nM | >789 | >1738 | >188
4 | Cc1cccc2cc([C@@H]3CCCN3c3ncnc4[nH]cnc34)c(N3CCOCC3)nc12 [Compound 64] | 1.6 nM | 317 | 748 | 48
5 | Fc1ccc2cc(C3CCCCN3c3ncnc4[nH]cnc34)c(N3CCOCC3)nc2c1 (stereo not shown) [Compound 38, 4-(3-(1-(9H-purin-6-yl)piperidin-2-yl)-7-fluoroquinolin-2-yl)morpholine] | 7.1 nM | 537 | 529 | 106
6 | N#Cc1c(N)ncnc1N1CCCC1c1cc2ccc(F)cc2nc1N1CCCCC1 (stereo not shown) [Compound 18] | 0.1 nM | 14712 | >100000 | 955
7 | Fc1ccc2cc(C3CCCN3c3ncnc4[nH]cnc34)c(-c3ccncc3)nc2c1 (stereo not shown) [Compound 14] | 521 nM | 4.2 | >19 | 3.3
8 | Nc1nc(N2CCCC2c2cc3ccc(F)cc3nc2N2CCCCC2)c2nc[nH]c2n1 (stereo not shown) [Compound 17] | 0.9 nM | 1714 | 5958 | 1.1
9 | Cc1cccc2cc([C@@H]3CCCN3c3ncnc4[nH]cnc34)c(-c3ccccc3)nc12 [Compound 63] | 18 nM | 264 | 556 | 5.6
10 | Fc1ccc2cc(C3CCCN3c3ncnc4[nH]cnc34)c(-c3cccc(OC(F)(F)F)c3)nc2c1 (stereo not shown) [Compound 26] | 207 nM | 39.7 | 483 | 12
11 | Fc1ccc2cc(C3CCCN3c3ncnc4[nH]cnc34)c(-c3ccccc3F)nc2c1 (stereo not shown) [Compound 24] | 16 nM | 393 | >613 | 22
12 | COc1ccccc1-c1nc2cc(F)ccc2cc1C1CCCN1c1ncnc2[nH]cnc12 (stereo not shown) [Compound 25] | 14 nM | 297 | >694 | 5.1
13 | Fc1ccc2cc(C3CC=CCN3c3ncnc4[nH]cnc34)c(N3CCOCC3)nc2c1 (stereo not shown) [Compound 43] | 6.8 nM | 169 | 689 | 39
14 | COc1cccc(-c2nc3cc(F)ccc3cc2C2CCCN2c2ncnc3[nH]cnc23)c1 (stereo not shown) [Compound 23] | 11 nM | 396 | >926 | 50
15 | N#Cc1c(N)ncnc1N1CCCC1c1cc2ccc(F)cc2nc1-c1ccccc1 (stereo not shown) [Compound 29] | 1.7 nM | 478 | 2170 | 52.4
16 | Clc1cccc2cc([C@@H]3CCCN3c3ncnc4[nH]cnc34)c(N3CCOCC3)nc12 [Compound 66] | 1.8 nM | 250 | 493 | 24
17 | N#Cc1c(N)nc(N)nc1N1CCC[C@H]1c1cc2cccc(Cl)c2nc1-c1ccccc1 [Compound 68] | < 0.05 nM | >106 | >545 | ~10
18 | N#Cc1c(N)nc(N)nc1N1CCCC1c1cc2ccc(F)cc2nc1-c1ccccc1 (stereo not shown) [Compound 27] | < 0.05 nM | >2185 | >12756 | >2.3
19 | Fc1ccc2cc(C3CCCN3c3ncnc4[nH]cnc34)c(N3CCOCC3)nc2c1 (stereo not shown) [Compound 20] | 19 nM | 190 | 528 | 18.8
